Results on six compounds are retold here after US4263299A, “Heterocyclic coumarin derivatives” (Beecham Group Limited, priority 1978, dated 1981).

Data set [1] relates to rat passive peritoneal anaphylaxis. In words: Rat passive peritoneal anaphylaxis (PPA). The class given is in vivo. Particulars: mean ± SEM, 3-7 rats per group. From the text:
(a) inhibit rat passive peritoneal anaphylaxis; and
(a) Rat passive peritoneal anaphylaxis (PPA)
The method has been described previously (Ross, Janet W., Smith, H. and Spicer, Barbara A. Increased vascular permeability during passive peritoneal anaphylaxis in the rat. Int. Arch. Allergy appl. Immun. 51, 226, 1976.)
Serum containing heat-labile homocytotropic antibody was raised in rats to ovalbumin by a method similar to that described by Mota, I. (The mechanism of anaphylaxis. I. Production and biological properties of mast cell sensitising antibody. Immunology, 7, 681; 1964). Male Wistar rats of 250-300 g were given intraperitoneal injections of 0.5 ml of Bordetella pertussis vaccine (4×10^10 organisms/ml; Burroughs Wellcome, London) and subcutaneous injections of 0.5 ml of an emulsion of 100 mg of ovalbumin in 2 ml of isotonic saline and 3 ml of Freund's incomplete adjuvant. The rats were bled by cardiac puncture on day 18, the blood was pooled and the serum separated, stored at -20° C. and thawed only once before use. The serum produced PCA activity in recipient rats down to a dilution of 1:32 to 1:64 after 72 hr and persisted for several days. This activity was lost to a dilution of 1:2 by heating at 56° for 4 hr even when the sensitising period was reduced to 4 hr.
Passive peritoneal anaphylaxis
Rats were given intraperitoneal injections of 2 ml of a 1:5 dilution of the rat anti-serum in isotonic saline. 2 hr later 0.3 ml of a 5% solution of Pontamine Sky Blue (Raymond A. Lamb, London) is isotonic saline was injected intravenously, followed by an intraperitoneal injection of the test compound in 1 ml of saline; (control rats received 1 ml of saline); followed 30 sec. later by an intraperitoneal injection of 5 ml of a Tyrode solution containing 50 μg/ml heparin and 0.4 mg/ml of ovalbumin. The concentrations of the compounds were quoted as those in the 6 ml of fluid injected intraperitoneally. Extractly 5 min. after challenge the rats were stunned and bled and their peritoneal fluids were collected by opening their peritoneal cavities over funnels into polycarbonate tubes in ice. The supernatants were separated from the cellular residue by centrifuging at 150 g for 5 min. and any samples obviously contaminated with blood were discarded and the remainder were retained for estimation of dye, histamine and SRS-A. Groups of at least 5 rats were used for each dose of compound and the treatments were randomized.
Assay of peritoneal fluids
Collected peritoneal fluids were immediately cooled to 0° C. and centrifuged and the supernatant fluids assayed for dye within 2 hr. 0.5-ml samples of the supernatants were added to 1 ml of 12% trichloracetic acid and stored at -20° C. and used to assay for histamine. The remainders of the supernatant fluids were placed in a boiling water bath for 5 min. and stored frozen at -20° C. until assayed for SRS-A.
The optical densities (OD) at 625 nm of the supernatants were determined. Samples were taken from supernatants with an OD greater than 2 and diluted in Tyrode's solution before reading.
Histamine was assayed using an automated spectrofluorimetric system (Technicon Autoanalyser) by a method similar to that of Evans, D. P., Lewis, J. A. and Thomson, D. S.: (An automated fluorimetric assay for the rapid determination of histamine in biological fluids. Life Sci. 12,327, 1973).
SRS-A was assayed on the isolated guinea pig ileum preparation in the presence of atropine (5×10^-7 M) and mepyramine maleate (10^-6 M), the latter to abolish the histamine response. (Brocklehurst, W. E. The release of histamine and formulation of a slow reacting substance (SRS-A) during anaphylactic shock. J. Physiol., Lond. 151, 416, 1960). Bulked peritoneal fluids from passively sensitised and challenged rats were centrifuged, heated, stored at -20° C. in 0.5 ml aliquots, and used as a reference SRS-A standard, and arbitrarily designated as containing 10 Units per ml. […]

The target in data set [2] is T1, histamine (spasmogenic effects) on isolated guinea pig ileum (Cavia porcellus, UniProt P31389).
T1 construct: isolated guinea pig ileum; from tissue; host or cells: isolated guinea pig ileum
T1 sequence (P31389 whole entry): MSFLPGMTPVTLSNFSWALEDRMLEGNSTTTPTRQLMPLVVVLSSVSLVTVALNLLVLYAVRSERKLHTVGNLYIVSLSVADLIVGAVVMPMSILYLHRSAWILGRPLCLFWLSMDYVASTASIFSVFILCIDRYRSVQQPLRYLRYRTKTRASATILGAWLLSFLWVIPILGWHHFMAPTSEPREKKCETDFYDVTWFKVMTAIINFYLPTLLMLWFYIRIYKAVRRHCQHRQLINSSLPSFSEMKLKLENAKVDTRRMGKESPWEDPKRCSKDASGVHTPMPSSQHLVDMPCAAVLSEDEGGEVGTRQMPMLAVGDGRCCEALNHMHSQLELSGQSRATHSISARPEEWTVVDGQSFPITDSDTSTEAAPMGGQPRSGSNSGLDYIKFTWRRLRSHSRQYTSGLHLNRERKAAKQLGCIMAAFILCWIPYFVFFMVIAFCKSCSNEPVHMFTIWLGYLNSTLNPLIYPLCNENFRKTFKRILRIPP
In words: Anti-histamine activity in vitro on guinea pig ileum (pA2). The following applies: for Kb: read-out: pA2 Mean ± SEM (antihistamine activity in vitro) (converted). The procedure:
(b) antagonise the spasmogenic effects of histamine on isolated guinea pig ileum.
(b) Measurement of anti-histamine activity in vitro on guinea pig ileum using the […]
The pA2 of the compound was determined in a similar manner to that described by Schild, H. O. (pA, A new scale for the measurement of drug antagonism. Brit. J. Pharmacol. 2, 189, 1947).

The subject of data set [3] is mice. Put plainly: Acute intravenous toxicity in mice. Type of data set: in vivo, mouse.
Setting [4] is: contact time 10.0 min, (part assay) for 4d.

Like-named read-outs stand apart in the source and are kept apart here.

For `O=c1oc2cc(OCCCN3CCN(Cc4ccc(Cl)cc4)CC3)ccc2c(O)c1[N+](=O)[O-]` [Example 1f, 1-(4-Chlorobenzyl)-4-[3-(4-hydroxy-3-nitrocoumarin-7-yloxy)propyl]piperazine], the “Dye concentration in peritoneal fluid as % of that in control rats not given compound” value in data set [1] (2 × 10^-6 M injected i.p.) is on record as 32.1 ± 3.6%; in data set [1] (2 × 10^-7 M injected i.p.), 88.1 ± 8.3%; in data set [1] (2 × 10^-8 M injected i.p.), 100 ± 16.7%. Further, the “Histamine concentration in peritoneal fluid as % of that in control rats not given compound” value in data set [1] (2 × 10^-6 M injected i.p.) came to 28.4 ± 3.4%; in data set [1] (2 × 10^-7 M injected i.p.), 75.8 ± 7.5%; in data set [1] (2 × 10^-8 M injected i.p.) it was 99.6 ± 8.3%. Further, the figures for the “SRSA concentration in peritoneal fluid as % of that in control rats not given compound” value in data set [1] (2 × 10^-6 M injected i.p.), in data set [1] (2 × 10^-7 M injected i.p.) and in data set [1] (2 × 10^-8 M injected i.p.) were 62.5 ± 17.2%, 71.8 ± 14.8% and 100 ± 14.8%, respectively. The Kb is 15.8 nM in data set [2] (contact time 0.5 min), 2.51 nM in data set [2] (contact time 2.0 min) and 0.631 nM in data set [2] (setting [4]). The “Deaths in mice at the high dose” value in data set [3] (mice, intravenous, 300 mg/kg, group of three) is on record as “all animals died”. The “Deaths in mice during four days” value in data set [3] (mice, intravenous, 1, 3 and 10 mg/kg, three groups of ten) is given as “No deaths occurred”. Further, the “Deaths in mice at the two lower doses” value in data set [3] (mouse, in vivo) is “none”.
On to `O=c1oc2cc(OCCCN3CCN(Cc4ccccc4)CC3)ccc2c(O)c1[N+](=O)[O-]` [Example 6d, 1-Benzyl-4-[3-(4-hydroxy-3-nitrocoumarin-7-yloxy)propyl]piperazine], for which, in data set [1] (2 × 10^-4 M injected i.p.), the “Dye concentration in peritoneal fluid as % of that in control rats not given compound” value is reported as 67 ± 10%, the “Histamine concentration in peritoneal fluid as % of that in control rats not given compound” value came to 12 ± 1.0% and the “SRSA concentration in peritoneal fluid as % of that in control rats not given compound” value came out at 55 ± 5%. Moreover, in data set [1] (2 × 10^-5 M injected i.p.), the “Dye concentration in peritoneal fluid as % of that in control rats not given compound” value is 91 ± 12%, the “Histamine concentration in peritoneal fluid as % of that in control rats not given compound” value is 56 ± 8% and the “SRSA concentration in peritoneal fluid as % of that in control rats not given compound” value came to 86 ± 14%. Besides, the Kb in data set [2] (contact time 0.5 min) was 79.4 nM. The Kb in data set [2] (contact time 2.0 min) was 25.1 nM. The “pA2 Mean ± SEM (antihistamine activity in vitro)” value (“pA2 Mean ± SEM” below) in data set [2] (setting [4]) is 7.9.
On to `CCCc1c(OCC(O)CN2CCN(Cc3ccc(Cl)cc3)CC2)ccc2c(O)c([N+](=O)[O-])c(=O)oc12` (centres unmarked) [Example 3d, 1-(4-chlorobenzyl)-4-[2-hydroxy-3-(4-hydroxy-3-nitro-8-n-propylcoumarin-7-yloxy)propyl]piperazine], for which, in data set [1] (2 × 10^-5 M injected i.p.), the “Dye concentration in peritoneal fluid as % of that in control rats not given compound” value came to 47 ± 6%, the “Histamine concentration in peritoneal fluid as % of that in control rats not given compound” value was determined as 15 ± 2% and the “SRSA concentration in peritoneal fluid as % of that in control rats not given compound” value was 75 ± 9%. In addition, in data set [1] (2 × 10^-6 M injected i.p.), the “Dye concentration in peritoneal fluid as % of that in control rats not given compound” value is on record as 79 ± 9%, the “Histamine concentration in peritoneal fluid as % of that in control rats not given compound” value is listed as 55 ± 9% and the “SRSA concentration in peritoneal fluid as % of that in control rats not given compound” value is given as 81 ± 6%. Moreover, the Kb in data set [2] (contact time 0.5 min) was 25.1 nM. Further, in data set [2] (contact time 2.0 min), the Kb is 10 nM. Besides, the “pA2 Mean ± SEM” value in data set [2] (setting [4]) was found to be 8.4.
`O=c1oc2cc(OCC(O)CN3CCN(Cc4ccc(Cl)cc4)CC3)ccc2c(O)c1[N+](=O)[O-]` (centres unmarked) [Example 2d, 1-(4-Chlorobenzyl)-4-[2-hydroxy-3-(4-hydroxy-3-nitrocoumarin-7-yloxy)propyl]piperazine]: in data set [1] (2 × 10^-5 M injected i.p.), the “Dye concentration in peritoneal fluid as % of that in control rats not given compound” value is given as 36 ± 4%, the “Histamine concentration in peritoneal fluid as % of that in control rats not given compound” value was determined as 13 ± 0.9% and the “SRSA concentration in peritoneal fluid as % of that in control rats not given compound” value was found to be 47 ± 11%. In data set [1] (2 × 10^-6 M injected i.p.), the “Dye concentration in peritoneal fluid as % of that in control rats not given compound” value was 46 ± 4%, the “Histamine concentration in peritoneal fluid as % of that in control rats not given compound” value amounted to 23 ± 1.0% and the “SRSA concentration in peritoneal fluid as % of that in control rats not given compound” value came out at 65 ± 13%. Further, the Kb in data set [2] (contact time 0.5 min) is 50.1 nM. In addition, the Kb in data set [2] (contact time 2.0 min) is 20 nM. In addition, the “pA2 Mean ± SEM” value in data set [2] (setting [4]) stood at 8.3.
In the case of `O=c1oc2cc(CN3CCN(Cc4ccc(Cl)cc4)CC3)ccc2c(O)c1[N+](=O)[O-]` [Example 5e, 1-(4-Chlorobenzyl)-4-[(4-hydroxy-3-nitrocoumarin-7-yl)methyl]piperazine], the results for the “Dye concentration in peritoneal fluid as % of that in control rats not given compound” value in data set [1] (2 × 10^-4 M injected i.p.), in data set [1] (2 × 10^-5 M injected i.p.) and in data set [1] (2 × 10^-6 M injected i.p.) were 28 ± 9%, 88 ± 14% and 103 ± 13%, respectively. Further, the entries for the “Histamine concentration in peritoneal fluid as % of that in control rats not given compound” value in data set [1] (2 × 10^-4 M injected i.p.), in data set [1] (2 × 10^-5 M injected i.p.) and in data set [1] (2 × 10^-6 M injected i.p.) were 17 ± 3%, 31 ± 2% and 93 ± 18%, respectively. For the same compound, the “SRSA concentration in peritoneal fluid as % of that in control rats not given compound” value in data set [1] (2 × 10^-5 M injected i.p.) came to 67 ± 15%; in data set [1] (2 × 10^-6 M injected i.p.), 94 ± 10%. Further, the Kb in data set [2] (contact time 0.5 min) and in data set [2] (contact time 2.0 min) was 2000 nM throughout. In addition, in data set [2] (setting [4]), the “pA2 Mean ± SEM” value is given as 5.6.
As for `O=c1oc2cc(OCCN3CCN(Cc4ccc(Cl)cc4)CC3)ccc2c(O)c1[N+](=O)[O-]` [Example 4d, 1-(4-Chlorobenzyl)-4-[2-(4-hydroxy-3-nitrocoumarin-7-yloxy)ethyl]piperazine], the “Dye concentration in peritoneal fluid as % of that in control rats not given compound” value in data set [1] (2 × 10^-4 M injected i.p.) is 40 ± 7%; in data set [1] (2 × 10^-5 M injected i.p.) it was 65 ± 11%. Further, the “Histamine concentration in peritoneal fluid as % of that in control rats not given compound” value in data set [1] (2 × 10^-4 M injected i.p.) is given as 11 ± 0.9%; in data set [1] (2 × 10^-5 M injected i.p.), 39 ± 8%. Also, the figures for the “SRSA concentration in peritoneal fluid as % of that in control rats not given compound” value in data set [1] (2 × 10^-4 M injected i.p.) and in data set [1] (2 × 10^-5 M injected i.p.) were 26 ± 6% and 73 ± 7%, respectively. Moreover, the Kb in data set [2] (contact time 0.5 min) was 63.1 nM; in data set [2] (contact time 2.0 min) it was 50.1 nM; in data set [2] (setting [4]), about 126 nM.
